Assay results from US20250073234A1, “COMBINATION THERAPIES INCLUDING PARP1 INHIBITORS” (Cornell University, priority 2022, published 2025).

How the values were obtained:
WPMY-1 cells = assay: ATAC-seq chromatin accessibility in WPMY-1 cells; type: cell-based, human; conditions: Olaparib-treated WPMY-1 cells, 96 h
Description: The cell pellet was resuspended in 50 μl lysis buffer and then spun down 500×g for 10 minutes at 4° C. The nuclei pellet was resuspended into 50 μl transposition reaction mixture containing Tn5 transposase from Nextera DNA Library Prep Kit (Illumina) and incubated at 37° C. for 30 minutes. Then the transposase-associated DNA was purified using MinElute PCR purification kit (QIAGEN). To amplify the library, the DNA was first amplified for 5 cycles using indexing primer from Nextera kit and NEBNext High-Fidelity 2×PCR master mix. To reduce the PCR amplification bias, 5 μl of amplified DNA after the first 5 cycles was used to do qPCR of 20 cycles to decide the number of cycles for the second round of PCR. Usually, the maximum cycle of the second round of PCR is 5 cycles. Then the total amplified DNA was size selected to fragments less than 800 bp using SPRI beads. Quantification of the ATAC-seq library was done with QuBit. The size of the pooled library was examined by TapeStation. Barcoded ATAC-seq libraries were pooled and paired end sequenced (sX75) on the Illumina NextSeq 500 using the High output V2.5 kit (Illumina Inc., San Diego, CA).
Peaks were annotated with ChipSeeker R package. […].

PC3 cells = assay: Click-iT EdU proliferation of PC3 cells treated with CM from WPMY-1 cells; type: cell-based, human; conditions: CM from Olaparib-treated WPMY-1, 24 h
Description: WPMY-1 cells were cultured in DMEN containing 10% FBS (basal conditions) or 10% charcoal stripped FBS (ADT conditions), then the cells were treated with vehicle (DMSO), Olaparib 10 μM, Olaparib 10 μM+PEGPH20 2.5 μg/ml for 96 hours, refreshing media and stimuli at 48 hours, conditioned media (CM) was generated by collecting supernatant on day 4. PC3 cells were seeded in a black-walled well (Thermo Fisher) and serum starved overnight. CM from WPMY-1 cells was added to PC3 for 24 h. PC3 were exposed to EdU incorporation for the last 2 hours. Proliferating cells were detected using Click-iT EdU Alexa fluor 488 (Thermo Fisher) following the manufacturer's instructions. Pictures were taken using EVOS M5000 Imaging System and EdU positive were measured using Fiji (Schindelin et al., 2012).

PC3^GFP cells = assay: Survival of GFP-labeled PC3 cells alone or co-cultured with WPMY-1 cells; type: cell-based, human; conditions: Olaparib 5 μM, 10 days, basal and ADT
Description: Co-culture assays were performed as described previously (Valencia et al., 2014). Briefly, stromal cells were seeded in TC-treated 6-well plates and allowed to attach for 6 hours before PCa cells were seeded on top of Milicell Cell Culture Inserts (Millipore). Inserts were then placed in the pre-seeded 6-well plate. For co-culture experiments of PC3-GFP label with WPMY-1 cells, 500 PC3 and 1000 WPMY-1 were seeded in a 96 well plate in DMEN containing 10% FBS (basal conditions) or 10% charcoal stripped FBS (ADT conditions) and vehicle (DMSO) or Olaparib 5 μM for 10 days. Media and treatments were refresh every 48 hours. Pictures were taken using EVOS M5000 Imaging System and GFP positive were measured using Fiji (Schindelin et al., 2012).

RM1-BoMe3 metastases = assay: Caudal artery injection RM1-BoMe3 metastasis model; type: in vivo, mouse; conditions: Olaparib 40 mg/kg i.p., 3 weeks
Description: Tissues from indicated mice were isolated, fixed in zinc buffered formalin overnight at 4° C., dehydrated, and embedded in paraffin. Sections (5 μm) were stained with hematoxylin and eosin (H&E). For immunohistochemistry, sections were deparaffinized, rehydrated, and then treated for antigen retrieval. After blocking in Protein Block Serum-Free solutions (DAKO), tissues were incubated with primary antibody overnight at 4° C. followed by incubation with biotinylated secondary antibody. Endogenous peroxidase was quenched in 3% H2O2 in water for 10 minutes at room temperature. Antibodies were visualized with avidin-biotin complex (Vectastain Elite; Vector Laboratories) using diaminobenzidine as the chromogen. Stained sections were analyzed with a Zeiss light microscope supplemented with Zen 3.3 Bule edition software.
For the metastasis model, caudal artery injection was performed with 500000 RM1-BoMe3-RFP-Luc prostate cancer epithelial cells in 150 μl of PBS n=10 in 8-week-old C57B16 male mice. After 1-week luciferase was visualized using IVIS to detect signal in the lower limbs and in less frequently in visceral organs, mice with signal were randomly distributed to receive vehicle, n=5, or Olaparib n=5 (40 mg/kg/, 5 days each, i.p.). After 3 weeks, mice were euthanized and ex-vivo IVIS was performed in lower limbs, vertebrae, and visceral organs to detect metastasis sites. Tissues were collected and analyzed histologically.

SMILES: O=C(c1cc(Cc2n[nH]c(=O)c3ccccc23)ccc1F)N1CCN(C(=O)C2CC2)CC1 [Olaparib]
- chromatin accessibility (WPMY-1 cells): strong decrease in chromatin accessibility across the genome
- PC3 proliferation (EdU positive cells) (PC3 cells): increased PC3 proliferation
- sensitivity of PC3^GFP cells to Olaparib, co-culture vs monoculture (PC3^GFP cells): more resistant to Olaparib
- HA deposition in liver metastasis (IHC) (RM1-BoMe3 metastases): increased HA deposition in Olaparib-treated liver metastasis
- TGFβ signaling in bone metastasis (nuclear pSMAD2) (RM1-BoMe3 metastases): increased pSMAD2 staining in bone metastasis
- HA deposition in liver metastasis (IHC) (RM1-BoMe3 metastases; listed as Ola): deposition of HA was observed
- TGFβ signaling in bone metastasis (nuclear pSMAD2) (RM1-BoMe3 metastases; listed as Ola): increased activation of TGFβ signaling
